Active and inactive are the calls of the source. The rule behind the calls is not given here.
Legend:
Type in all cases: functional
Pyricularia oryzae = experiment: Antifungal activity against Magnaporthe oryzae assessed as inhibition of germ tube growth at 1 to 5 ug/ml relative to control
Oryza sativa [1] = experiment: Induction of phytoalexin formation in suspension-cultured Oryza sativa (rice) cells assessed as accumulation of intracellular momilactone A at 0.7 x 10^-9 to 0.7 x 10^-6 M after 24 hr by GC/GC-MS analysis
Oryza sativa [2] = experiment: Induction of phytoalexin formation in suspension-cultured Oryza sativa (rice) cells assessed as accumulation of momilactone A in culture medium at 0.7 x 10^-9 to 0.7 x 10^-6 M after 48 hr by GC/GC-MS analysis
Oryza sativa [3] = experiment: Induction of phytoalexin formation in suspension-cultured Oryza sativa (rice) cells assessed as accumulation of intracellular momilactone B at 10 ug/ml after 48 hr by GC/GC-MS analysis
Oryza sativa [4] = experiment: Induction of phytoalexin formation in suspension-cultured Oryza sativa (rice) cells assessed as accumulation of momilactone A in culture medium at 0.7 x 10^-9 to 0.7 x 10^-6 M after 72 hr by GC/GC-MS analysis
Oryza sativa [5] = experiment: Induction of phytoalexin formation in suspension-cultured Oryza sativa (rice) cells assessed as accumulation of intracellular momilactone A at 0.7 x 10^-9 to 0.7 x 10^-6 M after 72 hr by GC/GC-MS analysis
Oryza sativa [6] = experiment: Induction of phytoalexin formation in suspension-cultured Oryza sativa (rice) cells assessed as accumulation of momilactone A in culture medium at 0.7 x 10^-9 to 0.7 x 10^-6 M after 24 hr by GC/GC-MS analysis
Oryza sativa [7] = experiment: Induction of phytoalexin formation in suspension-cultured Oryza sativa (rice) cells assessed as accumulation of intracellular momilactone A at 0.7 x 10^-9 to 0.7 x 10^-6 M after 48 hr by GC/GC-MS analysis

| Compound | growth inhibition (GI) (Pyricularia oryzae) | Activity (Oryza sativa [1]) | Activity (Oryza sativa [2]) | Activity (Oryza sativa [3]) | Activity (Oryza sativa [4]) | Activity (Oryza sativa [5]) | Activity (Oryza sativa [6]) | Activity (Oryza sativa [7]) |
| --- | --- | --- | --- | --- | --- | --- | --- | --- |
| C=C[C@]1(C)CC[C@@H]2C(=C[C@H]3OC(=O)[C@@]4(C)C(=O)CC[C@@]2(C)[C@@H]34)C1 [MOMILACTONE A] | 50% |  |  |  |  |  |  |  |
| C=C[C@]1(C)CC[C@@H]2C(=C[C@H]3OC(=O)[C@]4(C)[C@H]3[C@]23CC[C@@]4(O)OC3)C1 [MOMILACTONE B] | 50% |  |  |  |  |  |  |  |
| CC(=O)N[C@H]1[C@H](O[C@@H]([C@H](O)[C@H](C=O)NC(C)=O)[C@H](O)CO)O[C@H](CO)[C@@H](O[C@@H]2O[C@H](CO)[C@@H](O[C@@H]3O[C@H](CO)[C@@H](O[C@@H]4O[C@H](CO)[C@@H](O[C@@H]5O[C@H](CO)[C@@H](O[C@@H]6O[C@H](CO)[C@@H](O)[C@H](O)[C@H]6NC(C)=O)[C@H](O)[C@H]5NC(C)=O)[C@H](O)[C@H]4NC(C)=O)[C@H](O)[C@H]3NC(C)=O)[C@H](O)[C@H]2NC(C)=O)[C@@H]1O [N-ACETYLCHITOHEPTAOSE] |  | 16 µg/g | 161 µg/g | Active | 149 µg/g | 56 µg/g | 24 µg/g | 41 µg/g |
